Source: patent US20230257396A1, “MACROCYCLES AND THEIR USE” (BLOSSOMHILL THERAPEUTICS, INC., priority 2020, published 2023)

What was measured:
Assay in all cases: KINOMEscan kinase binding assay (Eurofins/DiscoveRx), % Ctrl
kinases [1] = biological target: T1, kinases (Homo sapiens, UniProt P16234); settings: 1 μM; target PDGFRA
T1 construct: purchased Eurofins/DiscoveRx; host or cells: E. coli BL21-derived host (T7 phage display) for most kinases; HEK-293 for the rest
Summary of the method: (§1)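 Read-out is qPCR of kinase eluted from ligand-coated streptavidin beads after 1 h room-temperature competition with test compound. Values are % Ctrl at the tested concentration, lower meaning tighter binding.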

kinases [2] = biological target: T2, kinases (Homo sapiens, UniProt P10721); settings: 1 μM; for % Ctrl, KIT: target KIT; for % Ctrl, KIT-autoinhibited: target KIT-autoinhibited
T2 construct: purchased Eurofins/DiscoveRx; host or cells: E. coli BL21-derived host (T7 phage display) for most kinases; HEK-293 for the rest
Summary of the method: as §1

kinases [3] = biological target: T3, kinases (Homo sapiens, UniProt P00519, Q252H); settings: 1 μM; for % Ctrl, ABL1(Q252H)-nonphosphorylated: target ABL1(Q252H)-nonphosphorylated; for % Ctrl, ABL1(Q252H)-phosphorylated: target ABL1(Q252H)-phosphorylated
T3 construct: purchased Eurofins/DiscoveRx; host or cells: E. coli BL21-derived host (T7 phage display) for most kinases; HEK-293 for the rest
Summary of the method: as §1

kinases [4] = biological target: T4, kinases (Homo sapiens, UniProt P07949, V804M); settings: 1 μM; target RET(V804M)
T4 construct: purchased Eurofins/DiscoveRx; host or cells: E. coli BL21-derived host (T7 phage display) for most kinases; HEK-293 for the rest
Summary of the method: as §1

kinases [5] = biological target: T5, kinases (Homo sapiens, UniProt P00519, T315I); settings: 1 μM; for % Ctrl, ABL1(T315I)-nonphosphorylated: target ABL1(T315I)-nonphosphorylated; for % Ctrl, ABL1(T315I)-phosphorylated: target ABL1(T315I)-phosphorylated
T5 construct: purchased Eurofins/DiscoveRx; host or cells: E. coli BL21-derived host (T7 phage display) for most kinases; HEK-293 for the rest
Summary of the method: as §1

kinases [6] = biological target: T6, kinases (Homo sapiens, UniProt P36888, D835Y); settings: 1 μM; target FLT3(D835Y)
T6 construct: purchased Eurofins/DiscoveRx; host or cells: E. coli BL21-derived host (T7 phage display) for most kinases; HEK-293 for the rest
T6 sequence (P36888 27-993 D835Y): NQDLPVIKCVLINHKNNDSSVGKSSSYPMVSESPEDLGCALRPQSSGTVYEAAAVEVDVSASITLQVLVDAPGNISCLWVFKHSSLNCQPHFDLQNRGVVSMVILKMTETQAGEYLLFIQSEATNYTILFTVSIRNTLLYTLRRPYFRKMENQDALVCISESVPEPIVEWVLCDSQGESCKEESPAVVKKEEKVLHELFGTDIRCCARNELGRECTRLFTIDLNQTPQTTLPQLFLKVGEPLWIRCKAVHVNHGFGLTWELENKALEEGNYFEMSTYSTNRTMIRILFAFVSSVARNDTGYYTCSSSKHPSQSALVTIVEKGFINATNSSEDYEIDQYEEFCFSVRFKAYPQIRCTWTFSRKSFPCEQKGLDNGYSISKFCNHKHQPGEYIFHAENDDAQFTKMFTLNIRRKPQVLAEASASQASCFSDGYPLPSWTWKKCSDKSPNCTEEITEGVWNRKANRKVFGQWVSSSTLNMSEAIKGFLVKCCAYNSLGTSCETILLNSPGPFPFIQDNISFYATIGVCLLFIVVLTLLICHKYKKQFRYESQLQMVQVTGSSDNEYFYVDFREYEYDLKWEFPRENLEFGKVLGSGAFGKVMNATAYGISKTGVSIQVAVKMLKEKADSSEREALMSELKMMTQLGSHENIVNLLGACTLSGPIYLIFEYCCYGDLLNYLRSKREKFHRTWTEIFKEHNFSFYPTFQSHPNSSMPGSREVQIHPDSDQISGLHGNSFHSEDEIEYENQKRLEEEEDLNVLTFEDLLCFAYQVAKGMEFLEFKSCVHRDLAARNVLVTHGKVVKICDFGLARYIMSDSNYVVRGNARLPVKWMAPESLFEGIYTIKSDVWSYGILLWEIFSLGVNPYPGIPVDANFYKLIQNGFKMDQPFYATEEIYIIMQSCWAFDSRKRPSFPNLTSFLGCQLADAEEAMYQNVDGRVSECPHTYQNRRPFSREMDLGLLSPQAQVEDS
Summary of the method: as §1

T1 sequence (P16234 24-1089): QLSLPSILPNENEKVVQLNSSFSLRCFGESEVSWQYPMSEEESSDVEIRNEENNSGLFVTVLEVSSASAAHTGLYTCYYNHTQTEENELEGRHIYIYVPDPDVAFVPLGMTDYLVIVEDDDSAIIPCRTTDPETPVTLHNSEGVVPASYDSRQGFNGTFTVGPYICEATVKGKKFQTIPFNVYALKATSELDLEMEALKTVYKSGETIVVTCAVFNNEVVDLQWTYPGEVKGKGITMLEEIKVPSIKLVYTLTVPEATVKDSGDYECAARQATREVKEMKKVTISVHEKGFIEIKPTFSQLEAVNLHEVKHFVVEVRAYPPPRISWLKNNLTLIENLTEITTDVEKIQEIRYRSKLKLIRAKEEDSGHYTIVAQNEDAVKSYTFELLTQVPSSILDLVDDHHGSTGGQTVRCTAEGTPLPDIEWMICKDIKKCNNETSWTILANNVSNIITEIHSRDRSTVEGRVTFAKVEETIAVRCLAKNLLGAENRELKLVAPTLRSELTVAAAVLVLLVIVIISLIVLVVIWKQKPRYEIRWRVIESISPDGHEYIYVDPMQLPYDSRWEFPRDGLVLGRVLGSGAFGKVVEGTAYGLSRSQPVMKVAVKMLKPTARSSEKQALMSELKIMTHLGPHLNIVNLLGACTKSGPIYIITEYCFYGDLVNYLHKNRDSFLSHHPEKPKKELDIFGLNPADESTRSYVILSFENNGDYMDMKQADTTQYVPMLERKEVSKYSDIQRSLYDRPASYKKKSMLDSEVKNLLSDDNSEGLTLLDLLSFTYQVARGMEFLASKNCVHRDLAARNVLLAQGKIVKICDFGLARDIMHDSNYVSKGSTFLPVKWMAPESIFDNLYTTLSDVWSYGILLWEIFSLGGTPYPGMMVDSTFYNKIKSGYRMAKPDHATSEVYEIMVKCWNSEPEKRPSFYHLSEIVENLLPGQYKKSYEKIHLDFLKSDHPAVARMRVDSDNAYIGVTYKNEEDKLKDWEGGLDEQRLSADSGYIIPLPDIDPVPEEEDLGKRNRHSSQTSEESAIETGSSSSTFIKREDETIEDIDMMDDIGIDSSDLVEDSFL
T4 sequence (P07949 29-1114 V804M): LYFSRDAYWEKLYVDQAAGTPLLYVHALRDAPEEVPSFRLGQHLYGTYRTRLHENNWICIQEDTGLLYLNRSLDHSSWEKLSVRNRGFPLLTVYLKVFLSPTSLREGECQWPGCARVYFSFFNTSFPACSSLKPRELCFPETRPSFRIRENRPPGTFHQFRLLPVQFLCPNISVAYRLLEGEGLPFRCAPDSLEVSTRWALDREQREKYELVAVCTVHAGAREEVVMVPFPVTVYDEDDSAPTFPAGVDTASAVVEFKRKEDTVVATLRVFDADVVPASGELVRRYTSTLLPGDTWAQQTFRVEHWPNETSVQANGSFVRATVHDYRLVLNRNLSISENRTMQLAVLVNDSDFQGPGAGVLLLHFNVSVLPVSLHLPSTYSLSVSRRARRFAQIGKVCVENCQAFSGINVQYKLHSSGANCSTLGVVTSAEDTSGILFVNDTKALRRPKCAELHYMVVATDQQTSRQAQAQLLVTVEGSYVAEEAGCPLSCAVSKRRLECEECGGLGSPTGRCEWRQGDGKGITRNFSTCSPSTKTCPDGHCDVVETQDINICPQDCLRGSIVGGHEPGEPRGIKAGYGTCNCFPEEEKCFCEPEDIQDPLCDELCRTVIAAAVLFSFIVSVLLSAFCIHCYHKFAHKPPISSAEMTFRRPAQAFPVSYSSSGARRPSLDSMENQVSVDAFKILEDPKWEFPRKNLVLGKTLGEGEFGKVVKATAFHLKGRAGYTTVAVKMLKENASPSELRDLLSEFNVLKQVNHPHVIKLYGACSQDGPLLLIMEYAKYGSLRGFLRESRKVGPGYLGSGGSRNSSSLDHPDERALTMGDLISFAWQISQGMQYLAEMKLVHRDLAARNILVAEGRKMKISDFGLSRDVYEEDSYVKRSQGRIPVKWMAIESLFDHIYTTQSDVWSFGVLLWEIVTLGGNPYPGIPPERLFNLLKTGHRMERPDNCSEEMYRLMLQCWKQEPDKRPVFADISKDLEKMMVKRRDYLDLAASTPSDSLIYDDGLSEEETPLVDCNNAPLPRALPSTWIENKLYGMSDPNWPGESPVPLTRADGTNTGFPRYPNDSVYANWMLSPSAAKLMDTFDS
T2 sequence (P10721 26-976): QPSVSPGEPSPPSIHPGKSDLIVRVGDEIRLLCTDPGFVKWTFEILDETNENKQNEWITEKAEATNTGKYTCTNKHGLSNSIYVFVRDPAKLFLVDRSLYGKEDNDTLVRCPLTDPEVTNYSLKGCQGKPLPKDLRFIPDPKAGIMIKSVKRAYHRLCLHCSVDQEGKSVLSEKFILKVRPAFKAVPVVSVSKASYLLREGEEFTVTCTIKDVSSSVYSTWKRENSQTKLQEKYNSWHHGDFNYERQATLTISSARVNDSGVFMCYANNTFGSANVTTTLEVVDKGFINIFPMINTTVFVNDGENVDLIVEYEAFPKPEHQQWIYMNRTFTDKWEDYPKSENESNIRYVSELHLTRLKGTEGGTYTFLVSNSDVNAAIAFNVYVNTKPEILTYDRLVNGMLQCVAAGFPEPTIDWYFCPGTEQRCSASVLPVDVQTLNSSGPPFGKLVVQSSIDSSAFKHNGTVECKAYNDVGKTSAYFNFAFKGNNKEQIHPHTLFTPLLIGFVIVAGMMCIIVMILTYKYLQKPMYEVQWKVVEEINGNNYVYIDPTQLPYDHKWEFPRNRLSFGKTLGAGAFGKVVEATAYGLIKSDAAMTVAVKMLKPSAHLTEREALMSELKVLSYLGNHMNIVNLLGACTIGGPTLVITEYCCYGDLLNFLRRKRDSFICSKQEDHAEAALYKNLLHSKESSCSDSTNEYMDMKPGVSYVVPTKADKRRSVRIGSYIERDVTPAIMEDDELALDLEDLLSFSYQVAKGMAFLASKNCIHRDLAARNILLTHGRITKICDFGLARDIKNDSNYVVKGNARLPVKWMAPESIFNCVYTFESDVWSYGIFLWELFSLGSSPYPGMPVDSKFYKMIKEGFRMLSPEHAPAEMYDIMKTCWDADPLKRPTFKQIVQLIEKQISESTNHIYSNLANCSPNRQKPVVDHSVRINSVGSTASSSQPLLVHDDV

Cc1cc2c([nH]1)/C=C1\C(=O)Nc3ccc(cc31)-c1cnn(C)c1OCCCN(C)C2=O [Ex. 166, [3a(4)Z]-9,14-dimethyl-9,10,11,12-tetrahydro-14H-1,17-(ethanediylidene)pyrazolo[4,3-n]dipyrrolo[3,2-g:3′,4′-j][1,5]oxazacyclopentadecine-3,8(2H,5H)-dione]
% Ctrl, PDGFRA (kinases [1]): 50 % Ctrl
% Ctrl, KIT (kinases [2]): 100 % Ctrl
% Ctrl, KIT-autoinhibited (kinases [2]): 87 % Ctrl
% Ctrl, ABL1(Q252H)-nonphosphorylated (kinases [3]): 2.6 % Ctrl
% Ctrl, ABL1(Q252H)-phosphorylated (kinases [3]): 3.8 % Ctrl
% Ctrl, RET(V804M) (kinases [4]): 0.1 % Ctrl
% Ctrl, ABL1(T315I)-nonphosphorylated (kinases [5]): 1.4 % Ctrl
% Ctrl, ABL1(T315I)-phosphorylated (kinases [5]): 1.2 % Ctrl
% Ctrl, FLT3(D835Y) (kinases [6]): 1.9 % Ctrl

Cc1cc2c([nH]1)/C=C1\C(=O)Nc3cc(Cl)c(cc31)SCCOCCN(C)C2=O [Ex. 169, [16a(17)Z]-19-chloro-5-methyl-6,7,9,10-tetrahydro-1H-12,14-(ethanediylidene)dipyrrolo[3,4-g:2′,3′-j][1,4,13]oxathiazacyclopentadecine-4,16(5H,15H)-dione]
% Ctrl, PDGFRA (kinases [1]): 16 % Ctrl
% Ctrl, KIT (kinases [2]): 7.5 % Ctrl
% Ctrl, KIT-autoinhibited (kinases [2]): 25 % Ctrl
% Ctrl, ABL1(Q252H)-nonphosphorylated (kinases [3]): 0 % Ctrl
% Ctrl, ABL1(Q252H)-phosphorylated (kinases [3]): 0.3 % Ctrl
% Ctrl, RET(V804M) (kinases [4]): 0.9 % Ctrl
% Ctrl, ABL1(T315I)-nonphosphorylated (kinases [5]): 0.3 % Ctrl
% Ctrl, ABL1(T315I)-phosphorylated (kinases [5]): 0.1 % Ctrl
% Ctrl, FLT3(D835Y) (kinases [6]): 1.6 % Ctrl

Cc1cc2c([nH]1)/C=C1\C(=O)Nc3cnc(cc31)-c1cnn(C)c1CN(C)CCN(C)C2=O [Ex. 172, [3a(4)Z]-6,9,12,14-tetramethyl-9,10,11,12,13,14-hexahydro-17,1-(azenometheno)pyrazolo[4,3-m]dipyrrolo[3,2-f:3′,4′-i][1,4]diazacyclopentadecine-3,8(2H,5H)-dione]
% Ctrl, PDGFRA (kinases [1]): 44 % Ctrl
% Ctrl, KIT (kinases [2]): 68 % Ctrl
% Ctrl, KIT-autoinhibited (kinases [2]): 100 % Ctrl
% Ctrl, ABL1(Q252H)-nonphosphorylated (kinases [3]): 0.3 % Ctrl
% Ctrl, ABL1(Q252H)-phosphorylated (kinases [3]): 0.1 % Ctrl
% Ctrl, RET(V804M) (kinases [4]): 0.8 % Ctrl
% Ctrl, ABL1(T315I)-nonphosphorylated (kinases [5]): 0 % Ctrl
% Ctrl, ABL1(T315I)-phosphorylated (kinases [5]): 1.7 % Ctrl
% Ctrl, FLT3(D835Y) (kinases [6]): 0.1 % Ctrl
